Key:
Experiment in all cases: relative viability (nuclei count vs DMSO), 5 days (fraction); higher = more cells survive
NVP-TAE684 + AZD7762 = compound: COc1cc(N2CCC(N3CCN(C)CC3)CC2)ccc1Nc1ncc(Cl)c(Nc2ccccc2S(=O)(=O)C(C)C)n1 [NVP-TAE684] + NC(=O)Nc1cc(-c2cccc(F)c2)sc1C(=O)N[C@H]1CCCNC1 [AZD7762] (partner 0.2 µM)
Method in brief: (§1)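 A single step with final 0.05% Triton X-100, 1% formaldehyde and 1 ug/ml Hoechst fixed the cells and stained nuclei 5 days after treatment. Lung cancer cell lines in 1536-well plates had been treated by pin tool the day after seeding with one drug alone or a fixed anchor-drug dose plus five library-drug doses (not always all listed) in √10 steps, and nuclei were counted on 4× images. Relative viability is the ratio of nuclei in treated wells to nuclei in vehicle wells, taken as the median of duplicate plates.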

CUDC-101 + Navitoclax = compound: C#Cc1cccc(Nc2ncnc3cc(OC)c(OCCCCCCC(=O)NO)cc23)c1 [CUDC-101] + CC1(C)CCC(c2ccc(Cl)cc2)=C(CN2CCN(c3ccc(C(=O)NS(=O)(=O)c4ccc(N[C@H](CCN5CCOCC5)CSc5ccccc5)c(S(=O)(=O)C(F)(F)F)c4)cc3)CC2)C1 [Navitoclax] (partner 0.5 µM)
Method in brief: as §1

NVP-TAE684 + OSI-027 = compound: COc1cc(N2CCC(N3CCN(C)CC3)CC2)ccc1Nc1ncc(Cl)c(Nc2ccccc2S(=O)(=O)C(C)C)n1 [NVP-TAE684] + COc1cccc2cc(-c3nc([C@H]4CC[C@H](C(=O)O)CC4)n4ncnc(N)c34)[nH]c12 [OSI-027] (partner 0.5 µM)
Method in brief: as §1

Vandetanib + Olaparib = compound: COc1cc2/c(=N/c3ccc(Br)cc3F)nc[nH]c2cc1OCC1CCN(C)CC1 [Vandetanib] + O=C(c1cc(Cc2n[nH]c(=O)c3ccccc23)ccc1F)N1CCN(C(=O)C2CC2)CC1 [Olaparib] (partner 8 µM)
Method in brief: as §1

NVP-TAE684 + Linsitinib = compound: COc1cc(N2CCC(N3CCN(C)CC3)CC2)ccc1Nc1ncc(Cl)c(Nc2ccccc2S(=O)(=O)C(C)C)n1 [NVP-TAE684] + C[C@]1(O)C[C@@H](c2nc(-c3ccc4ccc(-c5ccccc5)nc4c3)c3c(N)nccn32)C1 [Linsitinib] (partner 1 µM)
Method in brief: as §1

Cell Line | relative viability (NVP-TAE684 + AZD7762; first compound 0.2 µM) | relative viability (NVP-TAE684 + AZD7762; first compound 0.6325 µM) | relative viability (NVP-TAE684 + AZD7762; first compound 2 µM) | relative viability (CUDC-101 + Navitoclax; first compound 0.01 µM) | relative viability (CUDC-101 + Navitoclax; first compound 0.03162 µM) | relative viability (CUDC-101 + Navitoclax; first compound 0.1 µM) | relative viability (CUDC-101 + Navitoclax; first compound 0.3162 µM) | relative viability (CUDC-101 + Navitoclax; first compound 1 µM) | relative viability (NVP-TAE684 + OSI-027; first compound 0.2 µM) | relative viability (NVP-TAE684 + OSI-027; first compound 0.6325 µM) | relative viability (NVP-TAE684 + OSI-027; first compound 2 µM) | relative viability (Vandetanib + Olaparib; first compound 0.02 µM) | relative viability (Vandetanib + Olaparib; first compound 0.06325 µM) | relative viability (Vandetanib + Olaparib; first compound 0.2 µM) | relative viability (Vandetanib + Olaparib; first compound 0.6325 µM) | relative viability (Vandetanib + Olaparib; first compound 2 µM) | relative viability (NVP-TAE684 + Linsitinib; first compound 0.2 µM) | relative viability (NVP-TAE684 + Linsitinib; first compound 0.6325 µM) | relative viability (NVP-TAE684 + Linsitinib; first compound 2 µM)
NCI-H1944 | 0.507 | 0.441 | 0.348 | 1.02 | 1.03 | 1.01 | 1.09 | 0.861 | 0.428 | 0.36 | 0.278 | 0.414 | 0.396 | 0.306 | 0.377 | 0.397 | 1.16 | 1.17 | 1.3
NCI-H1975 | 0.694 | 0.649 | 0.381 | 1.32 | 1.09 | 1.19 | 1.27 | 1.13 | 0.732 | 0.594 | 0.341 | 0.807 | 0.733 | 0.795 | 0.684 | 0.716 | 1.01 | 0.97 | 0.269
NCI-H1993 | 0.772 | 0.826 | 0.584 | 0.827 | 0.884 | 0.743 | 0.771 | 0.558 | 0.494 | 0.466 | 0.593 | 1.06 | 0.977 | 1.16 | 0.911 | 0.893 | – | 0.66 | 0.658
NCI-H2085 | 0.991 | 0.953 | 0.797 | 1.11 | 1.26 | 1.18 | 1.16 | 1.02 | 0.777 | 0.739 | 0.57 | 0.77 | 0.72 | 0.808 | 0.769 | 0.712 | 0.928 | 0.82 | 0.7
NCI-H2087 | 1.47 | 1.37 | 1.22 | 0.945 | 1.07 | 1.04 | 0.98 | 0.727 | 0.538 | 0.438 | 0.354 | 0.497 | 0.567 | 0.644 | 0.613 | 0.639 | 1.04 | 1.04 | 0.982
NCI-H2126 | 1.03 | 1.01 | 0.684 | 0.889 | 0.86 | 0.852 | 0.815 | 0.649 | 0.603 | 0.631 | 0.493 | 0.883 | 0.888 | 0.818 | 0.923 | 0.88 | 0.701 | 0.684 | 0.688
NCI-H2347 | 0.723 | 0.613 | 0.628 | 0.88 | 0.797 | 0.751 | 0.937 | 0.783 | 0.403 | 0.368 | 0.301 | 0.538 | 0.525 | 0.596 | 0.692 | 0.553 | 1.06 | 0.976 | 0.875
NCI-H2405 | 0.767 | 0.598 | 0.31 | 1.12 | 0.842 | 0.953 | 1.17 | 0.665 | 0.564 | 0.613 | 0.261 | 0.835 | 0.816 | 0.895 | 0.948 | 0.837 | – | 0.849 | 0.573
NCI-H3122 | 0.22 | 0.184 | 0.127 | 0.982 | 0.987 | 1.06 | 1.05 | 1.06 | 0.173 | 0.127 | 0.154 | 0.617 | 0.576 | 0.232 | 0.567 | 0.621 | 0.266 | 0.222 | 0.184
PC-3 [JPC-3] | 0.821 | 0.673 | 0.54 | 0.776 | 0.749 | 0.506 | 0.613 | 0.342 | 0.686 | 0.759 | – | 1.06 | 0.961 | 1.06 | 0.747 | 0.557 | 0.96 | 0.934 | 0.843
PC-14 | 0.339 | 0.275 | 0.224 | 1.08 | 1.05 | 1.06 | 0.754 | 0.265 | 0.699 | 0.644 | 0.185 | 0.25 | 0.248 | 0.26 | 0.217 | 0.117 | 0.934 | 1.1 | 0.851
RERF-LC-KJ | 0.97 | 0.985 | 0.729 | 1.17 | 1.07 | 1.21 | 1.17 | 0.666 | 0.514 | 0.448 | 0.306 | 0.891 | 0.959 | 0.898 | 0.75 | 0.83 | 0.921 | 1.01 | –
